Measurements from publication PMC7044277 (Nature Communications, 2020).
Values joined by “and” are separate entries in the source; they are usually repeats but may differ in a detail not shown here. Equal values may be shown once.

Experiments:
[1] = molecular target: DRD2 (D2 long receptor) wild-type (Homo sapiens, UniProt P14416); assay: Radioligand competition binding, [3H]-N-methylspiperone, HEK293T membranes; details: DRD2; [3H]-methylspiperone (0.8-1.0 nM); read-out: Ki
[2] = molecular target: DRD3 wild-type (Homo sapiens, UniProt P35462); assay: Radioligand competition binding, [3H]-N-methylspiperone
Sequence of DRD3 wild-type (P35462 whole entry): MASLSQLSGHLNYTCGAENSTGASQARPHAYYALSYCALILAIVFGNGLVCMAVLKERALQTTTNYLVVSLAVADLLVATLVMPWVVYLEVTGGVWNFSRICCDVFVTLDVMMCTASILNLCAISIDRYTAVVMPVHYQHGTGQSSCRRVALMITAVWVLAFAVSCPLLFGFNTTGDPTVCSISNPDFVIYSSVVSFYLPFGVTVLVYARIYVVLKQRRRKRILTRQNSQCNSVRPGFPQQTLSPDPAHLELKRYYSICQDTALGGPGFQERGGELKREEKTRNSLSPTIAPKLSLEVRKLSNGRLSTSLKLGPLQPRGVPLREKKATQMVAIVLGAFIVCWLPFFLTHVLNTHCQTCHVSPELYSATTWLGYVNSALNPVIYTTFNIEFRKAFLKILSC

[3] = molecular target: T1, DRD4 (D4.4 variant) wild-type (Homo sapiens, UniProt P21917); assay: as above; details: DRD4; [3H]-methylspiperone (0.8-1.0 nM); read-out: Ki
T1 sequence (P21917 1-419): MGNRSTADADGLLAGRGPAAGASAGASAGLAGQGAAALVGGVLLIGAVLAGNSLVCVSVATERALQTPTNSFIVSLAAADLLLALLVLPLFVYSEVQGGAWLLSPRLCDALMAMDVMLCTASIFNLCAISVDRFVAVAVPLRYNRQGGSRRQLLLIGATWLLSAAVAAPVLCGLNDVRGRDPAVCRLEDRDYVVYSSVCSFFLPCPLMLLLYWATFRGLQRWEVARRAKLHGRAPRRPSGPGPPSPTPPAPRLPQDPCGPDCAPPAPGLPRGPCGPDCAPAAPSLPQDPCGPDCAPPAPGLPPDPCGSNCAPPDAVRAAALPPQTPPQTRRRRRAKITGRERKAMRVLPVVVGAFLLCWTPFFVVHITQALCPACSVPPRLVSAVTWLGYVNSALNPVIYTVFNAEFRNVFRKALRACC

[4] = molecular target: T2, DRD2 (D2 long receptor) (Homo sapiens, UniProt P14416); assay: Gαi/o-mediated cAMP inhibition (GloSensor split-luciferase cAMP reporter), HEK293T; format: cell-based; details: for Response, Fig_S11b dose-response: individual replicates;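 for all read-outs here: compounds applied 15 min at room temperature, then luciferin plus 400 nM isoproterenol to raise cAMP through endogenous β2-adrenergic receptors, luminescence read 15 min later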
T2 sequence (P14416 whole entry): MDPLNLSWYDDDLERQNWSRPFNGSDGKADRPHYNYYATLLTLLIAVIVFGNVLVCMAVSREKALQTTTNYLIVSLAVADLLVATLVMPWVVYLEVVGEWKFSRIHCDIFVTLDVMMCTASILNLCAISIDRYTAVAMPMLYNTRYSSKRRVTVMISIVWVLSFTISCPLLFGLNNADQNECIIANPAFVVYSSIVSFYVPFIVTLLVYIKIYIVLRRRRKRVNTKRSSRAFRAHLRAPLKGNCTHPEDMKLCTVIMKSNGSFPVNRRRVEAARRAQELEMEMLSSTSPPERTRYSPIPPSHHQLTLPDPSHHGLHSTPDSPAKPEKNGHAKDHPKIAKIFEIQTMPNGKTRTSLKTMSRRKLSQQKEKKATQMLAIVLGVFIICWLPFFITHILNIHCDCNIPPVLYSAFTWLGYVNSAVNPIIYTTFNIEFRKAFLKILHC

[5] = molecular target: T3, DRD4 (D4.4 variant) (Homo sapiens, UniProt P21917); assay: Gαi/o-mediated cAMP inhibition (GloSensor); format: cell-based; details: DRD4; agonist, cAMP inhibition; read-out: EC50 ± SEM
T3 sequence (P21917 1-419): T1 sequence (P21917 1-419)

[6] = molecular target: T2, DRD2 (D2 long receptor); assay: β-arrestin2 recruitment (Tango), HTLA cells; format: cell-based; details: for Response, Fig_S11c dose-response: individual replicates; for response, Fig S11c dose-response source data: reference of the scale not given here
[7] = molecular target: DRD3 (Homo sapiens, UniProt P35462); assay: β-arrestin2 recruitment (Tango); format: cell-based; details: DRD3; Tango; read-out: EC50 ± SEM
Sequence of DRD3 (P35462 whole entry): as the sequence (P35462 whole entry) above

[8] = molecular target: T3, DRD4 (D4.4 variant); assay: β-arrestin2 recruitment (Tango); format: cell-based; details: DRD4; Tango; read-out: EC50 ± SEM
[9] = molecular target: DRD2 F1103.28A (Homo sapiens, UniProt P14416, F110A); format: binding; design: expressed in transfected cells; host or cells: HEK293T (ATCC CRL-11268); details: DRD2 F1103.28A
Sequence of DRD2 F1103.28A (P14416 whole entry F110A): as the sequence (P14416 whole entry) above, with F110A counted along it

Sequence of DRD2 (D2 long receptor) wild-type (P14416 whole entry): as the sequence (P14416 whole entry) above

CC(NCC1(O)CCCCC1)c1cc2cccc(O)c2o1.Cl (stereo not drawn) [O2LE6]
Ki [1]: > 10 µM | Ki ([2]; DRD3, [3H]-methylspiperone (0.8-1.0 nM), read-out: Ki): 3.47 µM | pKi ± SEM ([2]; DRD3 wild-type): 5.46±0.10 | Ki [3]: > 10 µM | EC50 ([4]; DRD2, agonist, Gαi/o-mediated cAMP inhibition, read-out: EC50 ± SEM): > 10 µM | Response, Fig_S11b dose-response ([4]; Log[Drug] -5): 2.57 and -6.2065 and 9.406 and 22.878 and 21.3481 and -11.9066 and 1.916 | Response, Fig_S11b dose-response ([4]; Log[Drug] -5.52): 6.28 and 4.868 and 17.437 and 8.981 and 7.366 and 4.306 and -2.8216 and 10.8339 and 3.867 | Response, Fig_S11b dose-response ([4]; Log[Drug] -6): -4.6609 and -0.5921 | Response, Fig_S11b dose-response ([4]; Log[Drug] -6.52): -4.5336 and 10.5534 and 15.2708 and -15.8082 and -11.6836 | Response, Fig_S11b dose-response ([4]; Log[Drug] -7): 2.459 and 17.8523 and -17.1557 and -9.0384 and -5.1068 and -4.6609 and -7.169 | Response, Fig_S11b dose-response ([4]; Log[Drug] -7.52): -18.3605 and -3.0503 and 3.567 and -20.6831 and -11.3334 and 8.381 and -20.49 | Response, Fig_S11b dose-response ([4]; Log[Drug] -8): -13.294 and 23.168 and -7.9784 and -20.598 and -10.4409 and -9.4634 and -20.4343 | Response, Fig_S11b dose-response ([4]; Log[Drug] -8.52): 0.7703 and -10.5254 and -9.1135 and 3.329 and -12.6933 and -0.7512 and -34.034 and -13.4672 and -11.5164 | Response, Fig_S11b dose-response ([4]; Log[Drug] -9): 2.182 and 8.19 and 4.563 and -3.0886 and 6.152 and -13.6902 and -0.3134 | Response, Fig_S11b dose-response ([4]; Log[Drug] -9.52): -7.1755 and -21.4059 and -24.6779 and -18.9406 and -5.1068 and 6.486 | Response, Fig_S11b dose-response ([4]; Log[Drug] -10): -19.2464 and 38.0628 and -6.9263 and -30.0753 and -2.0262 and 6.261 and -22.9424 and -9.1198 and -15.8639 | Response, Fig_S11b dose-response ([4]; Log[Drug] -10.52): -15.9241 and -8.3937 and 23.898 and 3.978 and -13.6344 | Response, Fig_S11b dose-response ([4]; Log[Drug] -11): -21.7935 and 4.314 and -22.2642 and -20.2156 and 2.7337 and -9.1755 | Response, Fig_S11b dose-response ([4]; Log[Drug] -11.52): 5.117 and 27.9022 and 12.3983 and -0.5921 and -2.4314 and -6.9461 | Response, Fig_S11b dose-response ([4]; Log[Drug] -12): 6.64 and -0.2818 and -18.9406 and 16.0358 and 13.8258 and -18.8737 and -20.713 and -0.5921 | EC50 [5]: > 10 µM | EC50 ([6]; DRD2, β-arrestin2 recruitment (Tango), read-out: EC50 ± SEM): > 10 µM | response, Fig_S11c dose-response source data ([6]; Fig_S11c, Log[Drug] -5, replicate values): 16.7808 and 14.8237 and 14.215 and 18.5342 and 14.2817 and 15.7604 and 11.4227 and 17.086 and 21.2736 | Response, Fig_S11c dose-response ([6]; Log[Drug] -6.52): 3.717 | Response, Fig_S11c dose-response ([6]; Log[Drug] -7): 2.811 and 3.15 and 4.053 and 3 and 2.812 and 3.498 and 5.616 and 3.218 and 2.5633 | Response, Fig_S11c dose-response ([6]; Log[Drug] -7.52): 2.895 and 3.102 and 3.119 and 2.48 and 2.571 and 2.809 and 3.052 and 1.009 and 2.448 | Response, Fig_S11c dose-response ([6]; Log[Drug] -8): 2.815 and 2.652 and 3.1462 and 2.523 and 2.762 and 2.623 and 2.494 and 3.6148 and 1.539 | Response, Fig_S11c dose-response ([6]; Log[Drug] -8.52): 3.296 and 2.4132 and 3.209 and 2.229 and 3.453 and 2.266 and 3.066 and 1.184 and 1.383 | Response, Fig_S11c dose-response ([6]; Log[Drug] -9): 2.8445 and 2.312 and 2.494 and 3.046 and 2.174 and 2.343 and 1.927 and 6.732 and 6.534 | Response, Fig_S11c dose-response ([6]; Log[Drug] -9.52): 2.362 and 2.4976 and 2.923 and 2.359 and 2.154 and 2.345 and 3.43 and 1.364 and 3.781 | Response, Fig_S11c dose-response ([6]; Log[Drug] -10): 3.645 and 2.627 and 2.787 and 2.06 and 2.1828 and 2.292 and 2.6786 and 2.1344 and 1.378 | Response, Fig_S11c dose-response ([6]; Log[Drug] -10.52): 2.259 and 2.232 and 2.66 and 2.1982 and 2.238 and 2.169 and 4.722 and 1.378 and 2.323 | Response, Fig_S11c dose-response ([6]; Log[Drug] -11): 2.37 and 2.502 and 2.312 and 2.1828 (2×) and 2.084 and 1.9407 and 3.057 and 2.849 | Response, Fig_S11c dose-response ([6]; Log[Drug] -11.52): 2.185 and 2.208 and 2.688 and 2.5566 and 2.233 and 3.071 and 1.779 and 1.392 and 2.508 | Response, Fig_S11c dose-response ([6]; Log[Drug] -12): 2.133 and 2.211 and 2.421 and 5.046 and 2.173 and 2.317 and 0.6771 and 1.599 and 1.023 | EC50 [7]: > 10 µM | EC50 [8]: > 10 µM | pKi ± SEM [9]: 5.24±0.17 | Ki ([9]; read-out: Ki): 5.75 µM
